PubChem BioAssay (NCI)
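Compound exposure: 48 hours, 5 concentrations, 96-well plates. GI50 marks 50% less growth. At the TGI there is no net growth.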

Key:
Experiment in all cases: inhibition of tumour cell growth, NCI panel, 48 h
[1] = system: PC-3 prostate
[2] = system: K-562 leukemia
[3] = system: IGROV1 ovarian
[4] = system: SK-OV-3 ovarian
[5] = system: NCI/ADR-RES ovarian
[6] = system: NCI-H23 lung
[7] = system: M14 melanoma
[8] = system: HL-60(TB) leukemia
[9] = system: LOX IMVI melanoma
[10] = system: RXF 393 renal
[11] = system: HOP-92 NSCLC
[12] = system: SW-620 colon
[13] = system: SF-295 CNS
[14] = system: SNB-19 CNS
[15] = system: SR leukemia
[16] = system: HCT-15 colon
[17] = system: CAKI-1 renal
[18] = system: SF-268 CNS
[19] = system: CCRF-CEM leukemia
[20] = system: T-47D breast
[21] = system: BT-549 breast
[22] = system: UO-31 renal
[23] = system: SF-539 CNS
[24] = system: MCF7 breast
[25] = system: OVCAR-4 ovarian
[26] = system: DU-145 prostate
[27] = system: KM12 colon
[28] = system: HT29 colon
[29] = system: MOLT-4 leukemia
[30] = system: TK-10 renal
[31] = system: HS 578T breast
[32] = system: OVCAR-8 ovarian
[33] = system: ACHN renal
[34] = system: U251 CNS
[35] = system: NCI-H460 lung
[36] = system: COLO 205 colon
[37] = system: MDA-MB-231 breast
[38] = system: 786-0 renal
[39] = system: UACC-257 melanoma
[40] = system: SK-MEL-28 melanoma
[41] = system: NCI-H522 lung
[42] = system: MDA-MB-435
[43] = system: HCC-2998 colon
[44] = system: HCT-116 colon
[45] = system: EKVX NSCLC
[46] = system: SNB-75 CNS
[47] = system: RPMI-8226 leukemia
[48] = system: OVCAR-3 ovarian
[49] = system: A549 NSCLC
[50] = system: SK-MEL-2 melanoma
[51] = system: SK-MEL-5 melanoma
[52] = system: NCI-H226 lung
[53] = system: MALME-3M melanoma
[54] = system: UACC-62 melanoma
[55] = system: A498 renal
[56] = system: HOP-62 NSCLC
[57] = system: SN12C renal
[58] = system: OVCAR-5 ovarian

N#CSc1c[nH]c2ccc(/C=C/C(=O)/C=C(/C=C/c3ccc4[nH]cc(SC#N)c4c3)OB(F)F)cc12
GI50 [1]: 0.241 µM | TGI [1]: 1.95 µM | GI50 [2]: 0.281 µM | TGI [2]: > 100 µM | GI50 [3]: 0.352 µM | TGI [3]: 1.37 µM | GI50 [4]: 25.3 µM | TGI [4]: 88.3 µM | GI50 [5]: 1.74 µM | TGI [5]: > 100 µM | GI50 [6]: 0.947 µM | TGI [6]: 3.86 µM | GI50 [7]: 0.374 µM | TGI [7]: 1.68 µM | GI50 [8]: 0.949 µM | TGI [8]: 4.18 µM | GI50 [9]: 0.202 µM | TGI [9]: 0.571 µM | GI50 [10]: 0.24 µM | TGI [10]: 0.852 µM | GI50 [11]: 0.321 µM | TGI [11]: 1.5 µM | GI50 [12]: 0.333 µM | TGI [12]: 1.16 µM | GI50 [13]: 3.47 µM | TGI [13]: 14.4 µM | GI50 [14]: 3.32 µM | TGI [14]: 14.7 µM | GI50 [15]: 0.128 µM | GI50 [16]: 0.249 µM | TGI [16]: 1.09 µM | GI50 [17]: 0.531 µM | TGI [17]: 4.05 µM | GI50 [18]: 1.12 µM | TGI [18]: 2.8 µM | GI50 [19]: 0.267 µM | TGI [19]: 4.4 µM | GI50 [20]: 0.791 µM | TGI [20]: 8.6 µM | GI50 [21]: 0.835 µM | TGI [21]: 3.43 µM | GI50 [22]: 0.212 µM | TGI [22]: 0.808 µM | GI50 [23]: 1.86 µM | TGI [23]: 6.17 µM | GI50 [24]: 0.458 µM | TGI [24]: 3.5 µM | GI50 [25]: 0.344 µM | TGI [25]: 3.11 µM | GI50 [26]: 0.694 µM | TGI [26]: 2.55 µM | GI50 [27]: 1.02 µM | TGI [27]: 4.82 µM | GI50 [28]: 0.394 µM | TGI [28]: 2.38 µM | GI50 [29]: 0.306 µM | TGI [29]: 1.62 µM | GI50 [30]: 0.698 µM | TGI [30]: 14.8 µM | GI50 [31]: 1.36 µM | TGI [31]: > 100 µM | GI50 [32]: 0.577 µM | TGI [32]: > 100 µM | GI50 [33]: 0.208 µM | TGI [33]: 0.471 µM | GI50 [34]: 1.04 µM | TGI [34]: 2.99 µM | GI50 [35]: 0.763 µM | TGI [35]: 2.37 µM | GI50 [36]: 0.652 µM | TGI [36]: 3.52 µM | GI50 [37]: 0.917 µM | TGI [37]: 2.34 µM | GI50 [38]: 0.343 µM | TGI [38]: 3.44 µM | GI50 [39]: 2.82 µM | TGI [39]: 33.6 µM | GI50 [40]: 0.498 µM | TGI [40]: 2.29 µM | GI50 [41]: 0.212 µM | TGI [41]: 0.653 µM | GI50 [42]: 1.44 µM | TGI [42]: 3.25 µM | GI50 [43]: 3.72 µM | TGI [43]: 19.7 µM | GI50 [44]: 0.0887 µM | TGI [44]: 0.375 µM | GI50 [45]: 0.535 µM | TGI [45]: 3.53 µM | GI50 [46]: 2.38 µM | TGI [46]: 11.1 µM | GI50 [47]: 0.522 µM | GI50 [48]: 0.264 µM | TGI [48]: 0.762 µM | GI50 [49]: 3.31 µM | TGI [49]: 17.6 µM | GI50 [50]: 2.92 µM | TGI [50]: 8.04 µM | GI50 [51]: 1.37 µM | TGI [51]: 2.93 µM | GI50 [52]: 2.18 µM | TGI [52]: 5.62 µM | GI50 [53]: 0.261 µM | TGI [53]: 0.845 µM | GI50 [54]: 1.2 µM | TGI [54]: 2.85 µM | GI50 [55]: 3.24 µM | TGI [55]: 12.3 µM | GI50 [56]: 3.86 µM | TGI [56]: 38.9 µM | GI50 [57]: 0.442 µM | TGI [57]: 3.13 µM | GI50 [58]: 2.24 µM | TGI [58]: 8.68 µM
